Where two headings read alike, the source gives them in different places.
Experiments:
Format in all cases: in vitro ADME
[1] = Transport (permeability) of ginsenosides in CaCo-2 cell monolayers; details: human
Method: CaCo-2 cells (passage no 41–43) were seeded onto collagen-coated permeable support (1.0 μm pore size) in a 24-well plate at a density of 2.5 × 10^4 cells/insert and cultured for 21 days in Dulbecco’s modified eagle’s medium supplemented with 10% fetal bovine serum, 1% non-essential amino acids, and 1% penicillin-streptomycin at 37 °C in a humidified atmosphere (5% CO2/95% air). After confirming that the transepithelial electrical resistance (TEER) of the CaCo-2 cell monolayer was over 400 Ω·cm^2, Apical to basal (A to B) transport and B to A transport of ginsenosides using 50 µM, GRb1 was investigated as previously described. The same permeability study was performed using 50 µM GRb2, GRc, GRd, GRg3, GRh2, GF2, CK, PPD, GRe, GRf, GRg1, GRh1, GF1, or PPT.
(§1) For the transport study of ginsenosides in CaCo-2 cells and LLC-PK1-P-gp cells, the ginsenoside transport rate in the A to B or B to A directions was calculated from the slope of the regression line from the mean transported amounts versus time plot. The apparent permeability (Papp) was calculated using Equation (1). (1) Papp (×10^−6 cm/s)=transport rate (nmol/min)/concentration(μM)×area(cm^2)×60s
(§2) The efflux ratio was calculated by dividing the Papp of ginsenosides from the B to A direction by that from the A to B direction.

LAB = test: In vitro RGE fermentation with LAB; details: RGE incubated with LAB (1 billion CFU) for 7 days at 37 °C; result in words
Method: To identify the effects of LAB on ginsenoside metabolism, an in vitro fermentation study was performed according to the method of Jeon et al., with slight modifications. Briefly, RGE (10 mL, 1 pouch) and 2 g LAB (containing 1 billion CFU) were suspended in 10 mL autoclaved MRS broth (550 mg broth powder dissolved in 10 mL water). For the 15 ginsenosides, individual ginsenosides (10 μM each) and 2 g of LAB were suspended in 20 mL of autoclaved MRS broth (550 mg broth powder dissolved in 20 mL water). The mixture was incubated for 7 days in a shaking incubator at 37 °C and 300 rpm, and a 0.1 mL aliquot of the incubation mixture was collected on days 0, 3, 5, and 7. The incubation medium was diluted 100-fold with distilled water and stored at −80 °C to analyze ginsenosides using the LC-MS/MS system.
To measure the metabolic activity of ginsenosides, the formation rate of ginsenosides (pmol/day) was calculated by dividing the slope of the regression line by the amount of deglycosylated ginsenosides versus the incubation time plot by the initial concentration of individual ginsenosides.

P-gp = biological target: T1, P-gp (Homo sapiens, UniProt P08183); test: Transport of ginsenosides in P-gp-overexpressing LLC-PK1-P-gp cells; details: pig, 20 μM
T1 construct: host or cells: LLC-PK1-P-gp cells (passage no. 25–28)
T1 sequence (P08183 whole entry): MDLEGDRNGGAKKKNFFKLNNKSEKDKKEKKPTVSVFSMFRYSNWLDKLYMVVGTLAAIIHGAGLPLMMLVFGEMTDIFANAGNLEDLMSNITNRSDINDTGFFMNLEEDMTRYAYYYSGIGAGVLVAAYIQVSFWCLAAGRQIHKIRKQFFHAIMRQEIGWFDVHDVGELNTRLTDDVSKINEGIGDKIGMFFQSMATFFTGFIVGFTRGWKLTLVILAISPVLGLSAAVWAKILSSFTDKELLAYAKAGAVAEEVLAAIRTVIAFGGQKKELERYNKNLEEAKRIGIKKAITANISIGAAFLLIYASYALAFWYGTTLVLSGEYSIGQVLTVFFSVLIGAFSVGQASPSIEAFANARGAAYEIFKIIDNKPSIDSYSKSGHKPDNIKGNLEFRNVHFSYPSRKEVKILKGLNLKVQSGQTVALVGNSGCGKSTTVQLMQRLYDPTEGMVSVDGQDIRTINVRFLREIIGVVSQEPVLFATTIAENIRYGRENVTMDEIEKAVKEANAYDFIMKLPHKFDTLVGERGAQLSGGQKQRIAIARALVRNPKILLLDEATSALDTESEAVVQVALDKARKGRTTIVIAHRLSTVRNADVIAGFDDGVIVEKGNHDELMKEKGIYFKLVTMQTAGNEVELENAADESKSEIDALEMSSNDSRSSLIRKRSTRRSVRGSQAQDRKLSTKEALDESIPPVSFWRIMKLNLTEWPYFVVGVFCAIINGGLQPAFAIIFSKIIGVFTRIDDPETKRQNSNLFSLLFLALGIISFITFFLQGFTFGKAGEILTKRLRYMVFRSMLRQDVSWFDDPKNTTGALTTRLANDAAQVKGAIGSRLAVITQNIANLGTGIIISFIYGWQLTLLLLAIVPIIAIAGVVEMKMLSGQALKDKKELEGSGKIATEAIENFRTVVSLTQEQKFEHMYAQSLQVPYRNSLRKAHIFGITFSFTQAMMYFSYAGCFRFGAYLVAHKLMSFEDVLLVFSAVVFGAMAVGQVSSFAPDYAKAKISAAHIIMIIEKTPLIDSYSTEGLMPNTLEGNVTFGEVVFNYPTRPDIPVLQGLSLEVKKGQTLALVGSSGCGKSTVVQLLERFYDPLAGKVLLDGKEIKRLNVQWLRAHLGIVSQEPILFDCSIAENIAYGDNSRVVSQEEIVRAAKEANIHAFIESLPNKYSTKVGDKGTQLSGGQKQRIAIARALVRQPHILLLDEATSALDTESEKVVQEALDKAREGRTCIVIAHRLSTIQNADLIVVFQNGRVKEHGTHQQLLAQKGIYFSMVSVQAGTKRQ
Method: LLC-PK1-P-gp cells (passage no. 25–28) were seeded onto collagen-coated permeable support (1.0 μm pore size) in 24-well plates at a density of 2.5 × 10^4 cells/insert and grown for 5 days with TEER values of over 500 Ω·cm^2 [24]. The A to B transport and B to A transport of GRg3, GRh2, CK, PPD, GRg1, GRh1, and PPT (20 μM each) were measured as previously described. The concentration dependency in the B to A transport of GRh2, CK, PPD, and PPT was measured in the range of 6.25–200 μM for GRh2, CK, PPD, and PPT.
as §1, §2
To measure the kinetic parameters of the concentration dependence on the P-gp-mediated ginsenoside efflux, the ginsenoside transport rate in the B to A direction (ν) versus the ginsenoside concentration (S) plot was fitted in the Michaelis–Menten Equation (2) using Sigma Plot (version 12.0, Systat Software Inc. Chicago, IL, USA). (2) ν=Vmax×S/Km+S

SMILES	Papp A→B at 50 µM ([1]; Caco-2) [×10⁻⁶ cm/s]	Relative abundance / metabolic activity following fermentation of RGE with LAB (LAB)	efflux ratio at 20 μM (P-gp; LLC-PK1, LLC-PK1-P-gp cells, B to A Papp divided by A to B Papp, read-out: ER)	Papp A→B at 20 μM (P-gp; LLC-PK1-P-gp cells, mean ± SD, n = 3, read-out: A to B permeability) [×10⁻⁶ cm/s]	Papp B→A at 20 μM (P-gp; LLC-PK1-P-gp cells, mean ± SD, n = 3, read-out: B to A permeability) [×10⁻⁶ cm/s]	Papp A→B at 50 µM ([1]; CaCo-2 cell monolayers, 50 µM ginsenoside, read-out: A to B Papp) [×10⁻⁶ cm/s]
CC(C)=CCCC(C)(OC1OC(CO)C(O)C(O)C1O)C1CCC2(C)C1C(O)CC1C3(C)CCC(O)C(C)(C)C3C(O)CC12C (stereo not shown) [GF1]	< 0.3	remained unchanged				
CC(C)=CCCC(C)(O)C1CCC2(C)C1C(O)CC1C3(C)CCC(O)C(C)(C)C3C(OC3OC(CO)C(O)C(O)C3O)CC12C (stereo not shown) [GRh1]		significantly increased	0.9	0.21 ± 0.09	0.18 ± 0.01	< 0.3
